Source: patent publication US12728161B2 (priority 2019, dated 2026)
“Also recorded” adds a separate entry of the source.

Tests used:
[1] = tested on: HEK293T cells expressing NiV F and G; assay type: cell-based
[2] = tested on: pseudotyped NiV/VSV virus (pNiV)
[3] = tested on: NiV; conditions: cited from earlier work
[4] = tested on: Human respiratory syncytial virus (RSV A2 strain); assay type: cell-based
[5] = tested on: bovine rotavirus strain NCDV; experiment: Rotavirus infection assay in MA104 cells; assay type: cell-based; conditions: non-enveloped virus
Protocol: 18β-glycyrrhetinic acid (GRA) (Sigma-Aldrich) stock solutions were prepared to a concentration of 100 mg/mL in DMSO and aliquots were stored at −80° C. The stock solutions were diluted to working concentrations in DMEM without FBS. For the control compounds, MA104 (ATCC) cells were treated for 6 h with 25 μg/mL GRA. The viability was measured with the Promega CellTiterGlo Assay according to the manufacturer's protocol, with digitonin as the control for 100% cytotoxicity. Data shown are representative of two experiments, with each concentration tested in triplicate in each experiment. Error bars indicate SEM. […] Mock-infected wells received 50 μl of 0% M199 vehicle media. 50 μl of fresh 2× control and experimental compounds were added and at 18 h post-infection, the cells were fixed for 10 min with 80% acetone (Hardy et al., “18 Beta-glycyrrhetinic Acid Inhibits Rotavirus Replication in Culture,” Virol. J. 9:96 (2012), which is hereby incorporated by reference in its entirety).

[6] = tested on: Human Cytomegalovirus (HCMV); assay type: cell-based
[7] = tested on: SARS-CoV-2 (isolate USA-WA1/2020); assay type: cell-based
[8] = tested on: pNiV viral membranes; parameters: species or system NiV
[9] = target: NiV F protein (Nipah virus, UniProt Q9IH63)
[10] = target: NiV F and G on pNiV virions (Nipah virus, UniProt Q9IH62+Q9IH63)
[11] = tested on: norovirus; experiment: Plaque assay for norovirus infection in RAW 264.7 cells; assay type: cell-based; conditions: non-enveloped virus
Protocol: RAW 264.7 (ATCC) cells were infected with serial dilutions of norovirus for 1 h. 3% wt/vol Seaplaque agarose in 2×MEM media was placed as a first overlay. Then, cells were incubated for 48 h when plaques were visible and counted.

[12] = tested on: vesicular stomatitis virus (VSV); assay type: cell-based
[13] = target: NiV G glycoprotein (Nipah virus, UniProt Q9IH62)
[14] = tested on: Vero cells
[15] = tested on: NiV F and G glycoproteins; assay type: cell-based; conditions: XM-01 treatment
[16] = tested on: HSV-1 KOS; experiment: Plaque assay for HSV-1 infections; assay type: cell-based; conditions: virions treated with XM-01 before infection, various concentrations
Protocol: At 3 h post-inoculation, the medium was removed. At 18 to 24 h post-infection, the culture medium was removed, and cells were fixed with an ice-cold methanol-acetone solution (2:1 ratio) for 20 min at […] and air-dried. Virus titers were determined by immunoperoxidase staining with anti-HSV polyclonal antibody HR50 (Fitzgerald Industries, Concord, MA) (Roller et al., “Structure-Function Analysis of Herpes Simplex Virus Glycoprotein B with Fusion-from-without Activity,” Virology 382:207-216 (2008), which is hereby incorporated by reference in its entirety).

[17] = tested on: A/California/04/2009 (H1N1); assay type: cell-based, influenza virus

Sequence of NiV F protein (Q9IH63 110-546 limits assumed): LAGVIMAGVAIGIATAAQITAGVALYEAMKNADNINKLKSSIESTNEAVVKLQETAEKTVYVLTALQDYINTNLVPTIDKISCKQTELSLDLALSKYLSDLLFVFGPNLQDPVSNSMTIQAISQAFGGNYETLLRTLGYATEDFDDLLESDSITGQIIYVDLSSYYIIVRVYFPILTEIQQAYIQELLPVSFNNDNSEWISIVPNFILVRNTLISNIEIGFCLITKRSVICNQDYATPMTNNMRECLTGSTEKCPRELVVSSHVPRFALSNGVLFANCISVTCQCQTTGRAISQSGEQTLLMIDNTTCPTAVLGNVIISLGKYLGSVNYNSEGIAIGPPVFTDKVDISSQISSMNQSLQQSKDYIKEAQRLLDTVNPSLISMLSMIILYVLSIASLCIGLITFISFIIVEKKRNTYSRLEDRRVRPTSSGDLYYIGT
Sequence of NiV F protein (Q9IH63 27-109 limits assumed): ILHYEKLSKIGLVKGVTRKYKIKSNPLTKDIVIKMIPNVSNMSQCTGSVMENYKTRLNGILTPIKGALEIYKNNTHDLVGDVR
Sequence of NiV G glycoprotein (Q9IH62 whole entry, looked up): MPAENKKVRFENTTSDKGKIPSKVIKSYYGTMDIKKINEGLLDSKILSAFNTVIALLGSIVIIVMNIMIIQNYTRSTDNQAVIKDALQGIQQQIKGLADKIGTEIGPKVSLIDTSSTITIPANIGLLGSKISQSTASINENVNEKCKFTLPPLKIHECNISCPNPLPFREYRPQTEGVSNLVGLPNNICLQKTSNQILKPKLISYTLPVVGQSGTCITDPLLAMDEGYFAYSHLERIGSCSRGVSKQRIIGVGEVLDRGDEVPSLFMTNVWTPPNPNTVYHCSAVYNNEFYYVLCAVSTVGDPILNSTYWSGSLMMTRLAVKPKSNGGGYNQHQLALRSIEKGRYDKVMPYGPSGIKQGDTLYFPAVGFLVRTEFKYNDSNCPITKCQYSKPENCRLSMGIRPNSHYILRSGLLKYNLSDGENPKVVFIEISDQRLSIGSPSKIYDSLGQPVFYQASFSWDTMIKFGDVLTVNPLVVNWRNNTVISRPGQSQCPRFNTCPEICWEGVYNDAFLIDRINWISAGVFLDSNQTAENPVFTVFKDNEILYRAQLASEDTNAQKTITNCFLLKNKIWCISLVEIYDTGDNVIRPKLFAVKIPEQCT

C=CCN1C(=O)/C(=C/c2ccc(-c3ccccc3)o2)SC1=S [LJ001, reference compound]
cell-cell fusion (syncytia) [1]: affect cell-cell fusion
antiviral activity in the absence of light [2]: severely reduced in the absence of light

[Na+].[SH-] [NaHS]
antiviral effects against NiV [3]: known antiviral effects against NiV, although at high (millimolar) concentrations

COC(=O)C(CSSC(=O)c1ccccc1)NC(=O)c1ccccc1 (stereo not drawn) [XM-01]
inhibition of RSV infection [4]: inhibited by XM-01 in a concentration-dependent fashion
inhibition of rotavirus entry [5]: not inhibited
inhibition of HCMV infection [6]: inhibited by XM-01 in a concentration-dependent fashion
inactivation of SARS-CoV-2 [7]: complete inactivation
inhibition of plaque formation of SARS-CoV2 [7]: effective to inhibit plaque formation
viral membrane appearance by electron microscopy [8]: compromised membranes
F-triggering [9]: not decreased
antibody binding to F or G (conformation) [10]: no significant changes in antibody binding to either glycoprotein
cell-cell membrane fusion (syncytia) [1]: significantly reduced levels of cell-cell membrane fusion
EC50 [2]: ~1 µM
antiviral activity in the absence of light [2]: did not need light to inhibit pNiV infection
difference between the inhibitory and cytotoxic concentrations [2]: ~ 3 log
infectivity of treated virions [2]: highly inhibited
inhibition of infection post-entry (time of XM-01 addition) [2]: completely incapable of inhibiting the infection
viral infection after pre-treatment of cells [2]: did not significantly reduce viral infection
inhibition of norovirus entry [11]: not inhibited
inhibition of VSV infection [12]: inhibited by XM-01 in a concentration-dependent fashion
ephrinB2/G binding [13]: did not interfere with the receptor-binding ability of the G glycoprotein
CC50 [14]: ~1000 µM
cytotoxicity [14]: little to no cytotoxicity
cytotoxicity levels [14]: low levels of cytotoxicity
cell surface expression of F and G glycoproteins [15]: not be significantly affected
inhibition of HSV-1 infection [16]: inhibited by XM-01 in a concentration-dependent fashion
EC50 [17]: high nanomolar to low micromolar range
inhibition of influenza A/California/04/2009 infection [17]: inhibited by XM-01 in a concentration-dependent fashion; also recorded: significantly inhibited
neutralization of influenza [17]: complete neutralization

CC(=O)NC(CSSC(=O)c1ccccc1)C(=O)NCc1ccccc1 (stereo not drawn) [XM-02]
infectivity of pNiV in Vero cells [2]: best inhibited pNiV infections
inhibitory properties against pNiV [2]: inhibitory properties
cytotoxicity levels [14]: low levels of cytotoxicity

COC(=O)C(CSSC(C)=O)NC(=O)c1ccccc1 (stereo not drawn) [XM-03]
infectivity of pNiV in Vero cells [2]: best inhibited pNiV infections
inhibitory properties against pNiV [2]: inhibitory properties
cytotoxicity levels [14]: low levels of cytotoxicity

CCCCNC(=O)C(CCSSC(=O)c1ccccc1)NC(=O)c1ccccc1 (stereo not drawn) [XM-06]
infectivity of pNiV in Vero cells [2]: best inhibited pNiV infections

COC(=O)C(CSC(=O)c1ccccc1)NC(=O)c1ccccc1 (stereo not drawn) [XM-10]
inhibitory properties against pNiV [2]: inhibitory properties
cytotoxicity levels [14]: low levels of cytotoxicity

COC(=O)C(CSC(C)=O)NC(=O)c1ccccc1 (stereo not drawn) [XM-11]
inhibitory properties against pNiV [2]: inhibitory properties
cytotoxicity levels [14]: low levels of cytotoxicity

O=C(SSC(=O)c1ccccc1)c1ccccc1 [XM-12]
infectivity of pNiV in Vero cells [2]: best inhibited pNiV infections

C=O [formalin, reference compound]
inactivation of SARS-CoV-2 [7]: complete inactivation
